Reference: ChEMBL document CHEMBL3045323, “Synthesis, anti-inflammatory and anticancer activity evaluation of some mono- and bis-Schiffs bases” (2012)
Starred links: 1 amine or outer side, 2 acyl side, 3 side chain; linkers in the order of their positions; H or OH if unused. Positions of bridges follow the written chain, without caps; N, C: chain ends. Non-standard residues stand in square brackets, D forms with d. Residues, ends and D or L forms follow the SMILES beside them. Chains are numbered I, II in the order given. Actinocin(1to9) = Cc1c2oc3c(C)ccc(C(=O)[*:2])c3nc-2c(C(=O)[*:1])c(N)c1=O; NMeV = CN[C@H](C(=O)O)C(C)C; Sar = CNCC(=O)O

Key:
Assay type in all cases: functional
HepG2 = assay: Cytotoxicity against Homo sapiens (human) HepG2 cells assessed as growth inhibition at 1 x 10^-5 M after 48 hr by SRB assay; details: HepG2, 48 h, read-out: GI
PA-1 = assay: Cytotoxicity against Homo sapiens (human) PA1 cells assessed as growth inhibition at 1 x 10^-5 M after 48 hr by SRB assay; details: PA-1, 48 h, read-out: GI
T47D = assay: Cytotoxicity against Homo sapiens (human) T47D cells assessed as growth inhibition at 1 x 10^-5 M after 48 hr by SRB assay; details: read-out: GI
Rattus norvegicus = assay: Anti-inflammatory activity inRattus norvegicus albino (rat) assessed as inhibition of carrageenan-induced paw edema at 50 mg/kg, po administered for 30 min followed by carrageenan challenge measured after 1 to 3 hr relative to control
HCT-15 = assay: Cytotoxicity against Homo sapiens (human) HCT15 cells assessed as growth inhibition at 1 x 10^-5 M after 48 hr by SRB assay; details: HCT-15, 48 h, read-out: GI
NCI-H522 = assay: Cytotoxicity against Homo sapiens (human) NCI-H522 cells assessed as growth inhibition at 1 x 10^-5 M after 48 hr by SRB assay; details: NCI-H522, 48 h, read-out: GI

COc1cc(/C=N/CC2CCCO2)ccc1O (stereo unspecified)
inhibition of growth at 10 µM (HepG2): 1% | inhibition of growth at 10 µM (PA-1): 13% | inhibition of growth at 10 µM (T47D): 25% | inhibition in vivo at 50 mg/kg (Rattus norvegicus): 14% | inhibition of growth at 10 µM (HCT-15): 24% | inhibition of growth at 10 µM (NCI-H522): 17%

COc1cc(/C=N/CCCn2ccnc2)ccc1O
inhibition of growth at 10 µM (HepG2): 11% | inhibition of growth at 10 µM (PA-1): 16% | inhibition of growth at 10 µM (T47D): 15% | inhibition in vivo at 50 mg/kg (Rattus norvegicus): 0% | inhibition of growth at 10 µM (HCT-15): 1% | inhibition of growth at 10 µM (NCI-H522): 22%

COc1cc(/C=N/CCN2CCNCC2)ccc1O
inhibition of growth at 10 µM (HepG2): 30% | inhibition of growth at 10 µM (PA-1): 39% | inhibition of growth at 10 µM (T47D): 25% | inhibition in vivo at 50 mg/kg (Rattus norvegicus): 18% | inhibition of growth at 10 µM (HCT-15): 4% | inhibition of growth at 10 µM (NCI-H522): 25%

COc1ccc(OC)c(/C=N/CC2CCCO2)c1 (stereo unspecified)
inhibition of growth at 10 µM (HepG2): 25% | inhibition of growth at 10 µM (PA-1): 38% | inhibition of growth at 10 µM (T47D): 33% | inhibition in vivo at 50 mg/kg (Rattus norvegicus): 16% | inhibition of growth at 10 µM (HCT-15): 0% | inhibition of growth at 10 µM (NCI-H522): 15%

COc1ccc(OC)c(/C=N/CCCn2ccnc2)c1
inhibition of growth at 10 µM (HepG2): 24% | inhibition of growth at 10 µM (PA-1): 25% | inhibition of growth at 10 µM (T47D): 29% | inhibition in vivo at 50 mg/kg (Rattus norvegicus): 0% | inhibition of growth at 10 µM (HCT-15): 3% | inhibition of growth at 10 µM (NCI-H522): 24%

COc1ccc(OC)c(/C=N/CCN2CCNCC2)c1
inhibition of growth at 10 µM (HepG2): 22% | inhibition of growth at 10 µM (PA-1): 16% | inhibition of growth at 10 µM (T47D): 28% | inhibition in vivo at 50 mg/kg (Rattus norvegicus): 21% | inhibition of growth at 10 µM (HCT-15): 4% | inhibition of growth at 10 µM (NCI-H522): 49%

C(=N\CC1CCCO1)/c1ccco1 (stereo unspecified)
inhibition of growth at 10 µM (HepG2): 20% | inhibition of growth at 10 µM (PA-1): 16% | inhibition of growth at 10 µM (T47D): 12% | inhibition in vivo at 50 mg/kg (Rattus norvegicus): 26% | inhibition of growth at 10 µM (HCT-15): 4% | inhibition of growth at 10 µM (NCI-H522): 15%

C(=N\CCCn1ccnc1)/c1ccco1
inhibition of growth at 10 µM (HepG2): 1% | inhibition of growth at 10 µM (PA-1): 13% | inhibition of growth at 10 µM (T47D): 16% | inhibition in vivo at 50 mg/kg (Rattus norvegicus): 28% | inhibition of growth at 10 µM (HCT-15): 1% | inhibition of growth at 10 µM (NCI-H522): 29%

C(=N\CCN1CCNCC1)/c1ccco1
inhibition of growth at 10 µM (HepG2): 18% | inhibition of growth at 10 µM (PA-1): 35% | inhibition of growth at 10 µM (T47D): 21% | inhibition in vivo at 50 mg/kg (Rattus norvegicus): 22% | inhibition of growth at 10 µM (HCT-15): 5% | inhibition of growth at 10 µM (NCI-H522): 19%

COc1cc(/C=N/c2n[nH]c(/N=C/c3ccc(O)c(OC)c3)n2)ccc1O
inhibition of growth at 10 µM (HepG2): 14% | inhibition of growth at 10 µM (PA-1): 40% | inhibition of growth at 10 µM (T47D): 38% | inhibition in vivo at 50 mg/kg (Rattus norvegicus): 26% | inhibition of growth at 10 µM (HCT-15): 4% | inhibition of growth at 10 µM (NCI-H522): 9%

COc1cc(/C=N/CCCN2CCN(CCC/N=C/c3ccc(O)c(OC)c3)CC2)ccc1O
inhibition of growth at 10 µM (HepG2): 3% | inhibition of growth at 10 µM (PA-1): 51% | inhibition of growth at 10 µM (T47D): 18% | inhibition in vivo at 50 mg/kg (Rattus norvegicus): 25% | inhibition of growth at 10 µM (HCT-15): 5% | inhibition of growth at 10 µM (NCI-H522): 1%

COc1ccc(OC)c(/C=N/c2n[nH]c(/N=C/c3cc(OC)ccc3OC)n2)c1
inhibition of growth at 10 µM (HepG2): 10% | inhibition of growth at 10 µM (PA-1): 53% | inhibition of growth at 10 µM (T47D): 41% | inhibition in vivo at 50 mg/kg (Rattus norvegicus): 22% | inhibition of growth at 10 µM (HCT-15): 5% | inhibition of growth at 10 µM (NCI-H522): 15%

COc1ccc(OC)c(/C=N/CCCN2CCN(CCC/N=C/c3cc(OC)ccc3OC)CC2)c1
inhibition of growth at 10 µM (HepG2): 8% | inhibition of growth at 10 µM (PA-1): 62% | inhibition of growth at 10 µM (T47D): 24% | inhibition in vivo at 50 mg/kg (Rattus norvegicus): 20% | inhibition of growth at 10 µM (HCT-15): 7% | inhibition of growth at 10 µM (NCI-H522): 13%

C(=N\c1n[nH]c(/N=C/c2ccco2)n1)/c1ccco1
inhibition of growth at 10 µM (HepG2): 25% | inhibition of growth at 10 µM (PA-1): 48% | inhibition of growth at 10 µM (T47D): 30% | inhibition in vivo at 50 mg/kg (Rattus norvegicus): 11% | inhibition of growth at 10 µM (HCT-15): 3% | inhibition of growth at 10 µM (NCI-H522): 26%

C(=N\CCCN1CCN(CCC/N=C/c2ccco2)CC1)/c1ccco1
inhibition of growth at 10 µM (HepG2): 10% | inhibition of growth at 10 µM (PA-1): 43% | inhibition of growth at 10 µM (T47D): 9% | inhibition in vivo at 50 mg/kg (Rattus norvegicus): 30% | inhibition of growth at 10 µM (HCT-15): 6% | inhibition of growth at 10 µM (NCI-H522): 5%

C[C@@H]1C[C@@H]([C@H](O)CC2CC(=O)NC(=O)C2)C(=O)[C@@H](C)C1 [CYCLOHEXIMIDE]
inhibition of growth at 10 µM (HepG2): 14% | inhibition of growth at 10 µM (PA-1): 82% | inhibition of growth at 10 µM (T47D): 30% | inhibition of growth at 10 µM (HCT-15): 5% | inhibition of growth at 10 µM (NCI-H522): 20%

O=P1(N(CCCl)CCCl)NCCCO1 (stereo unspecified) [CYCLOPHOSPHAMIDE ANHYDROUS]
inhibition of growth at 10 µM (HepG2): 24% | inhibition of growth at 10 µM (PA-1): 21% | inhibition of growth at 10 µM (T47D): 36% | inhibition of growth at 10 µM (HCT-15): 7% | inhibition of growth at 10 µM (NCI-H522): 7%

Cc1c2oc3c(C)ccc(C(=O)N[C@@H]4C(=O)N[C@H](C(C)C)C(=O)N5CCC[C@H]5C(=O)N(C)CC(=O)N(C)[C@@H](C(C)C)C(=O)O[C@@H]4C)c3nc-2c(C(=O)N[C@@H]2C(=O)N[C@H](C(C)C)C(=O)N3CCC[C@H]3C(=O)N(C)CC(=O)N(C)[C@@H](C(C)C)C(=O)O[C@@H]2C)c(N)c1=O [DACTINOMYCIN] (I: T[dV]P[Sar][NMeV] / II: T[dV]P[Sar][NMeV]; ester I:1-I:C, II:1-II:C; linker I:N-II:N via Actinocin(1to9))
inhibition of growth at 10 µM (HepG2): 42% | inhibition of growth at 10 µM (PA-1): 93% | inhibition of growth at 10 µM (T47D): 21% | inhibition of growth at 10 µM (HCT-15): 49% | inhibition of growth at 10 µM (NCI-H522): 59%

O=c1[nH]cc(F)c(=O)[nH]1 [FLUOROURACIL]
inhibition of growth at 10 µM (HepG2): 33% | inhibition of growth at 10 µM (PA-1): 27% | inhibition of growth at 10 µM (T47D): 22% | inhibition of growth at 10 µM (HCT-15): 21% | inhibition of growth at 10 µM (NCI-H522): 51%

CC(C)Cc1ccc(C(C)C(=O)O)cc1 (stereo unspecified) [IBUPROFEN]
inhibition in vivo at 50 mg/kg (Rattus norvegicus): 39%
